Reference: US7084270B2, “Pyrimido compounds having antiproliferative activity” (Hoffman-La Roche Inc., priority 2002, dated 2006)
Read-outs that look alike come from different tables or passages of the source.

Columns and labels:
[1] = molecular target: EGFR (Homo sapiens, UniProt P00533); assay: EGFR kinase HTRF assay; format: biochemical; details: enzyme inhibition, 0.5 μM ATP
Method: (§1) To determine inhibition of KDR, FGFR, EGFR, and PDGFR activity, kinase assays were conducted using an HTRF (Homogeneous Time Resolved Fluorescence) assay. This assay is described in A. J. Kolb et. al., Drug Discovery Today, 1998, 3(7), p 333.
(§2) Kinase activity assays were performed in 96-well polypropylene plates (Falcon) with a total volume of 90 μL in each well. Each well contained 1 μM KDR substrate (Biotin-EEEEYFELVAKKKK), 1 nM activated KDR, and a test compound with one of 8 assay concentrations ranging from 100 μM to […] (1:5 serial dilution). The kinase activity assay was done in the presence of 100 mM HEPES, pH 7.4, 1 mM DTT, 0.1 mM Na2VO4, 25 mM MgCl2, 50 mM NaCl (from KDR stock solution), 1% DMSO (from compound), 0.3 mM ATP (at Km concentration) and 0.02% BSA. The reaction was incubated at 37° C. for 30 minutes. To stop the KDR reaction, 72 μL of reaction mixture was transferred into a STOP plate containing 18 μL of revelation buffer (20 mM EDTA, 50 mM HEPES, pH 7.4, 0.02% BSA, 10 nM Eu-labelled anti-pY antibody (final conc. 2 nM), and 100 nM streptavidin (final conc. 20 nM)). After mixing, 35 μL of solution was transferred into duplicate wells of a 384-well black plate (Costar), and read at 615/665 nm on a Wallac Victor 5 reader.
The rest of the assay was performed in the same manner as the KDR assay.
(§3) Compound IC50 values were determined from duplicate sets of data, and calculated by using Excel and fitting data to equation Y=[(a−b)/{1+(X/c)^d]+b, where a and b are enzyme activity in the presence of no test inhibitor compound and an infinite amount of inhibitor test compound, respectively, c is the IC50 and d is the hill constant of the compound response. The IC50 value is the concentration of test compound that reduces by 50% the enzyme activity under the test conditions described.

[2] = tested on: Human umbilical vein endothelial cells (HUVEC), FGF-stimulated; assay: FGF-stimulated HUVEC proliferation assay (BrdU); format: cell-based; details: BrdU labeling, FGF 5 ng per mL, 24 hour exposure, read-out: HUVEC/bFGFR IC50
Method: (§4) The antiproliferative activity of test compounds of this invention in cell-based assays was evaluated by BrdU assay using the BrdU kit (Roche Biochemicals 1-647-229). Human umbilical vein endothelial cells (Clonetics CC-2519) were cultured in EGM-2 (Clonetics CC-3162) medium and seeded at 10000 cells per well in a volume of 200 μL of EGM-2 (Clonetics CC-3162) media in a 96-well flat bottom plates (Costar 3595) overnight. After 24 hours of growth at 37° C. with 5% CO2, the incubation media was removed slowly by aspiration and the content of each well was washed with 300 μL pre-warmed EBM-2 (Clonetics CC-3156) containing 50 μg per mL of gentamycin and 50 ng per mL of amphotercin-B (Clonetics CC-4083). Subsequently, the remaining media was again aspirated and replaced with 160 μL per well of serum starvation media (EBM-2 supplemented with 1% heat inactivated FBS (Clonetics CC-4102), 50 μg per mL gentamycin and 50 ng per mL of amphotercin-B (Clonetics CC-4083), 10 units per mL of Wyeth-Ayerst heparin (NDC0641-0391-25), and 2 mM L-glutamine (GIBCO 25030-081). After serum starving the cells for 24 hours, 20 μL of test compound at 10× test concentration in serum starvation medium with 2.5% DMSO was added to the appropriate wells. The control wells contained 20 μL of serum starvation medium with 2.5% DMSO. Plates were returned to the incubator for 2 hours. After pre-incubating the cells with the test compounds for 2 hours, 20 μL of growth factors at 10×assay concentration diluted in serum starvation media, FGF at 50 ng per mL, or VEGF (R&D systems 293-VE) at 200 ng per mL were added. The final concentration of FGF in the assay was 5 ng per mL, and the final concentration of VEGF in the assays was 20 ng per mL. The growth factor free control wells had 20 μL per well of serum starvation media with the same amount of BSA as the wells with growth factors. The plates were returned to the incubator for an additional 22 hours.
(§5) After 24 hour exposure to the test compounds, the cells were labeled with BrdU (Roche Biochemicals 1-647-229), by adding 20 μL per well of BrdU labeling reagent that has been diluted (1:100) in serum starvation medium. The plates were then returned to the incubator for 4 hours. The labeling medium was removed by draining the medium onto paper towels. […] The plates were read at 450 nm with reference wavelength of 650 nm. The percent inhibition for each test compound was calculated by subtracting the absorbency of the blank (no cells) wells from all wells, then subtracting the division of the average absorbency of each test duplicate by the average of the controls from 1. […] The IC50 is determined from the linear regression of a plot of the logarithm of the concentration versus percent inhibition.

[3] = molecular target: PDGFR; assay: PDGFR kinase HTRF assay; format: biochemical; details: enzyme inhibition, 2.3 μM ATP
Method: as §1, §2
The PDGFR kinase activity assay was performed with 1 μM substrate (Biotin-EEEEYFELV), 1.0 nM PDGFR, test compounds, 100 mM HEPES, pH 7.4, 1 mM DTT, 5 mM MgCl2, 2 mM MnCl2, 1% DMSO, 2.3 μM ATP (Km for PDGFR), 0.1 mM Na2VO4, and 0.02% BSA. The rest of the assay was performed in the same manner as the KDR assay.
as §3

[4] = molecular target: T1, FGFR; assay: FGFR kinase HTRF assay; format: biochemical; details: enzyme inhibition, 10 μM ATP
T1 construct: fused on or other part: GST tag
Method: as §1, §2
FGFR, EGFR, and PDGFR activity assays were carried out as described above for the KDR activity assay with the following differences. GST-tagged FGFR enzyme was activated at room temperature for 1 hour in the following activation buffer: 100 mM HEPES, pH 7.4, 50 mM NaCl, 20 mM MgCl2, and 4 mM ATP. […] The rest of the assay was performed in the same manner as KDR assay.
as §3

[5] = molecular target: T2, KDR (Homo sapiens, UniProt P35968); assay: KDR kinase HTRF assay; format: biochemical; details: enzyme inhibition, 0.3 mM ATP
T2 construct: EEE-tag
T2 sequence (P35968 20-1356, species assumed): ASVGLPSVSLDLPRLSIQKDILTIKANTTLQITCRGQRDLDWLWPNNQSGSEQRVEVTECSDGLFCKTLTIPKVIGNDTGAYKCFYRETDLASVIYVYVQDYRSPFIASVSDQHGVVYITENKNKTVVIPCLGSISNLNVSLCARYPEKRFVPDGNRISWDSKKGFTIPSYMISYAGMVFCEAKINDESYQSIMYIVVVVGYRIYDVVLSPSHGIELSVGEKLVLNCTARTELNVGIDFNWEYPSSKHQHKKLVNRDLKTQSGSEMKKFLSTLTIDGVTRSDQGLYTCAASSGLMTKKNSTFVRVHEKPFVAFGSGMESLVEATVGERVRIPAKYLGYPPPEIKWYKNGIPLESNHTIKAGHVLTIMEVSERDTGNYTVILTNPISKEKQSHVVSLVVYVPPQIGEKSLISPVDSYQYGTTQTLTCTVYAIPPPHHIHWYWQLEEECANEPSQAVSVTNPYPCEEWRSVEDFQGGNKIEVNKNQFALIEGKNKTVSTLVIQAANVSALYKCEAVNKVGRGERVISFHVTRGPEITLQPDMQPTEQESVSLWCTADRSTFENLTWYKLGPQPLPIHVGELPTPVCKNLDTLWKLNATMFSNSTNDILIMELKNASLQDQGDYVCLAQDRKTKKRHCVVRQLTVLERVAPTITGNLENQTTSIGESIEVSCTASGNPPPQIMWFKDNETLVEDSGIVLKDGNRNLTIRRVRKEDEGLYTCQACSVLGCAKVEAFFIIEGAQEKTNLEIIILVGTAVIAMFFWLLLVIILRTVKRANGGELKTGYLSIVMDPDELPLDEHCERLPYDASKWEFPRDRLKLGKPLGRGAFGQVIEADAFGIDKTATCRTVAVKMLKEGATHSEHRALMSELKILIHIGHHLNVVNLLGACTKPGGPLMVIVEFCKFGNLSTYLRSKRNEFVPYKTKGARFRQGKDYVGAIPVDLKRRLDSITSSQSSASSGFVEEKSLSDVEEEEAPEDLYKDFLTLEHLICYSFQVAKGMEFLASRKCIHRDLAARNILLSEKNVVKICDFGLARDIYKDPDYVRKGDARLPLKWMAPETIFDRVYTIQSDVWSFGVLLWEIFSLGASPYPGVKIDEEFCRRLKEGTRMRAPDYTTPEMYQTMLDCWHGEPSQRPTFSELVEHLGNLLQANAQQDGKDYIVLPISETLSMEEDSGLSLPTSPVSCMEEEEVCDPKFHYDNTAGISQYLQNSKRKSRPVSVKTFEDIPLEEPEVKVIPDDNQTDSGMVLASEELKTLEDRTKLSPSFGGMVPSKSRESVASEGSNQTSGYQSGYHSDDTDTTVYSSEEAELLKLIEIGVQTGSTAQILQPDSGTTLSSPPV
Method: as §1
Prior to kinase reaction, recombinant EEE-tagged KDR was activated in the presence of activation buffer (50 mM HEPES, pH 7.4, 1 mM DTT, 10% glycerol, 150 mM NaCl, 0.1 mM EDTA, 26 mM MgCl2, and 4 mM ATP). The enzyme was incubated at 4° C. for 1 hour.
as §2, §3

[6] = tested on: Human umbilical vein endothelial cells (HUVEC), VEGF-stimulated; assay: VEGF-stimulated HUVEC proliferation assay (BrdU); format: cell-based; details: BrdU labeling, VEGF 20 ng per mL, 24 hour exposure, read-out: HUVEC/VEFG IC50
Method: as §4, with “After pre-incubating the cells with the test compounds for 2 hours, 20 μL of growth factors at 10×assay concentration diluted in serum starvation media, FGF at 50 ng per mL, or VEGF (R&D systems 293-VE) at 200 ng per mL were added. The final concentration of FGF in the assay was 5 ng per mL, and the final concentration of VEGF in the assays was 20 ng per mL. The growth factor free control wells had 20 μL per well of serum starvation media with the same amount of BSA as the wells with growth factors. The plates were returned to the incubator for an additional 22 hours.” left out
as §5, with “medium.” for “medium. The plates were then returned to the incubator for 4 hours. The labeling medium was removed by draining the medium onto paper towels.”

Sequence of EGFR (P00533 25-1210, species assumed): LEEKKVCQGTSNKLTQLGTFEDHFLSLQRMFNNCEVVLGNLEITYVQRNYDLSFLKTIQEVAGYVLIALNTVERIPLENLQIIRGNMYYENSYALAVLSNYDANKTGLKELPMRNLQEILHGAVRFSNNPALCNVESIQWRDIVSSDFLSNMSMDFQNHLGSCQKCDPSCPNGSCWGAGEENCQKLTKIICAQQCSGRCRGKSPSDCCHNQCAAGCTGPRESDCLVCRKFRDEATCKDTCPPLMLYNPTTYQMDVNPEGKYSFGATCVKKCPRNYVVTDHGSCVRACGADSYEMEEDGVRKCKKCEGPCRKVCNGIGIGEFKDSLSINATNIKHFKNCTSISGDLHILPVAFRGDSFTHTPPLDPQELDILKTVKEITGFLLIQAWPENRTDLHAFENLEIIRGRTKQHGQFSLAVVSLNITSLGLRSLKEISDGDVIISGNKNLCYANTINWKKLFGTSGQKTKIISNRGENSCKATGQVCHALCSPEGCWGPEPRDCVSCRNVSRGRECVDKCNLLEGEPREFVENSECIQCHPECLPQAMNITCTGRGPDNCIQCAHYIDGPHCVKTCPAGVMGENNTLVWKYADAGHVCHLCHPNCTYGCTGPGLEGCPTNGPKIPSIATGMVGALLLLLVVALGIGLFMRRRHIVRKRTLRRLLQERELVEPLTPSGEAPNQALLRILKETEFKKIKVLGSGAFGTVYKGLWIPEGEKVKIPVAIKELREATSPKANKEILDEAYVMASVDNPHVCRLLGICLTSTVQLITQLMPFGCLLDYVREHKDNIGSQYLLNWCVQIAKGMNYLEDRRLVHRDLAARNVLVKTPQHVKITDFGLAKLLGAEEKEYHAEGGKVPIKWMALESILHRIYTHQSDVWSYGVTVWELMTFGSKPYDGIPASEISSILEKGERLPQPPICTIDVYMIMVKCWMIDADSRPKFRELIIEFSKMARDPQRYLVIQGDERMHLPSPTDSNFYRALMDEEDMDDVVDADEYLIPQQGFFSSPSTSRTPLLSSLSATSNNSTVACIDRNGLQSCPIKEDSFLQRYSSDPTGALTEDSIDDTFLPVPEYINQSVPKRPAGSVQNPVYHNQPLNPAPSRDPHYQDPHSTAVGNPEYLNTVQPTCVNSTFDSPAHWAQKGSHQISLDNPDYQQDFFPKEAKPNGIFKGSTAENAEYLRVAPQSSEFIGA

Structure (SMILES) | IC50 [3] [nM] | IC50 [4] [nM] | IC50 [1] [nM] | IC50 ([2]; Homo sapiens, HUVEC, 24 h) [nM] | IC50 [5] [nM] | IC50 [6] [nM] | melting point [°C] | IC50 ([2]; methanesulfonate salt) [nM] | IC50 ([3]; methanesulfonate salt) [nM] | IC50 ([4]; methanesulfonate salt) [nM]
COc1ccc(N2Cc3cnc(Nc4ccccc4)nc3N(c3ccccc3)C2=O)cc1 [Example 1g, 3-(4-Methoxyphenyl)-1-phenyl-7-(phenylamino)-1,3,4-trihydropyrimidino[4,5-d]pyrimidin-2-one] | 130 | 190 | 360 | 310 | 44 | 120 |  |  |  | 
COc1ccc(N2Cc3cnc(Nc4ccccc4)nc3N(c3ccccc3)C2=O)cc1.CS(=O)(=O)O [Example 1h, 3-(4-Methoxyphenyl)-1-phenyl-7-(phenylamino)-1,3,4-trihydropyrimidino[4,5-d]pyrimidin-2-one methanesulfonate salt] |  |  | 350 |  | 76 |  | 245 to 251 | 430 | 150 | 170
COc1ccc(N2Cc3cnc(N(C(=O)OCOC(=O)CN(C)C)c4ccccc4)nc3N(c3ccccc3)C2=O)cc1 [Example 5a] |  |  |  |  |  |  | 172 |  |  | 

More lines, main results first:

IC50 [3] [nM] | IC50 [4] [nM] | Structure (SMILES) | IC50 [1] [nM] | IC50 ([2]; Homo sapiens, HUVEC, 24 h) [nM] | IC50 [5] [nM] | IC50 [6] [nM] | melting point [°C] | IC50 ([2]; methanesulfonate salt) [nM] | IC50 ([3]; methanesulfonate salt) [nM] | IC50 ([4]; methanesulfonate salt) [nM]
64 | 110 | COc1ccc(N2Cc3cnc(Nc4ccc(O)cc4)nc3N(c3ccccc3)C2=O)cc1 [Example 18, 7-[(4-Hydroxyphenyl)amino]-3-(4-methoxyphenyl)-1-phenyl-1,3,4-trihydropyrimidino[4,5-d]pyrimidin-2-one] | 130 | 150 | 29 | 63 |  |  |  | 
82 | 91 | COc1ccc(Nc2ncc3c(n2)N(c2ccccc2)C(=O)N(c2ccc(OC)cc2)C3)cc1 [Example 20, 3-(4-Methoxyphenyl)-7-[(4-methoxyphenyl)amino]-1-phenyl-1,3,4-trihydropyrimidino[4,5-d]pyrimidin-2-one] | 180 | 350 | 24 | 96 |  |  |  | 
